Measurements from patent US20200317642A1, “AMINE-SUBSTITUTED HETEROCYCLIC COMPOUNDS AS EHMT2 INHIBITORS AND DERIVATIVES THEREOF” (Epizyme, Inc., priority 2017, published 2020).

These molecules were tested on H3K9me2 in MDA-MB-231 cells (assay: MDA-MB-231 H3K9me2 in-cell western assay (EHMT2 ICW)). Conditions: Homo sapiens, Table 3, read-out: EHMT2 ICW (IC50 μM).
Assay type: cell-based
Text: MDA-MB-231 cell line was purchased from ATCC (Manassas, Va., USA). RPMI/Glutamax medium, Penicillin-Streptomycin, Heat Inactivated Fetal Bovine Serum, and D-PBS were purchased from Life Technologies (Grand Island, N.Y., USA). Odyssey blocking buffer, 800 CW goat anti-mouse IgG (H+L) antibody, and Licor Odyssey Infrared Scanner were purchased from Licor Biosciences, Lincoln, Nebr., USA. H3K9me2 mouse monoclonal antibody (Cat #1220) was purchased from Abcam (Cambridge, Mass., USA). 16% Paraformaldehyde was purchased from Electron Microscopy Sciences, Hatfield, Pa., USA). MDA-MB-231 cells were maintained in complete growth medium (RPMI supplemented with 10% v/v heat inactivated fetal bovine serum) and cultured at 37° C. under 5% C02. UNC0638 was purchased from Sigma-Aldrich (St. Louis, Mo., USA).
General Procedure for MDA-MB-231 HEK9me2 in-Cell Western Assay.
Compound (100 nL) was added directly to 384-well cell plate. MDA-MB-231 cells (ATCC) were seeded in assay medium (RPMI/Glutamax supplemented with 10% v/v heat inactivated fetal bovine serum and 1% Penicillin/Streptomycin, Life Technologies) at a concentration of 3,000 cells per well to a Poly-D-Lysine coated 384-well cell culture plate with 50 μL per well. Plates were incubated at 37° C., 5% CO2 for 48 hours (BD Biosciences 356697). […] After the incubation, 50 μL per well of 8% paraformaldehyde (Electron Microscopy Sciences) in PBS was added to the plates and incubated at room temperature for 20 minutes. Plates were transferred to a Biotek 406 plate washer and washed 2 times with 100 μL per well of wash buffer (1×PBS containing 0.3% Triton X-100 (v/v)). Next, 60 μL per well of Odyssey blocking buffer (Licor Biosciences) was added to each plate and incubated for 1 hour at room temperature. Blocking buffer was removed and 20 μL of monoclonal primary antibody α-H3K9me2 (Abcam) diluted 1:800 in Odyssey buffer with 0.1% Tween 20 (v/v) were added and plates were incubated overnight (16 hours) at 4° C. Plates were washed 5 times with 100 μL per well of wash buffer. Next 20 μL per well of secondary antibody was added (1:500 800 CW donkey anti-mouse IgG (H+L) antibody (Licor Biosciences), 1:1000 DRAQ5 (Cell Signaling Technology) in Odyssey buffer with 0.1% Tween 20 (v/v)) and incubated for 1 hour at room temperature. The plates were washed 5 times with 100 μL per well wash buffer then 2 times with 100 μL per well of water. Plates were allowed to dry at room temperature then imaged on a Licor Odyssey Infrared Scanner (Licor Biosciences) which measured integrated intensity at 700 nm and 800 nm wavelengths. Both 700 and 800 channels were scanned.
First, the ratio for each well was determined by:
Each plate included fourteen control wells of DMSO only treatment (Minimum Inhibition) as well as fourteen control wells (background wells) for maximum inhibition treated with control compound UNC0638 (Background wells).
The average of the ratio values for each well was calculated and used to determine the percent inhibition for each test well in the plate. Control compound was serially diluted three-fold in DMSO for a total of 10 test concentrations beginning at 1 μM. Percent inhibition was calculated as: […]
IC50 curves were generated using triplicate wells per concentration of compound. The IC50 is the concentration of compound at which measured methylation is inhibited by 50% as interpolated from the dose response curves. IC50 values were calculated using a non-linear regression (variable slope-four parameter fit model) with by the following formula:
where Top is fixed at 100% and Bottom is fixed to 0%, [I]=concentration of inhibitor, IC50=half maximal inhibitory concentration and n=Hill Slope.
For `CNc1cc(C)nc(Nc2ccc(OC)c(C#CCN3CCNCC3)c2)n1` [Compound 28, 2-N-[4-methoxy-3-[3-(piperazin-1-yl)prop-1-yn-1-yl]phenyl]-4-N,6-dimethylpyrimidine-2,4-diamine], the IC50 was 1 to 10 µM.
`CNc1cc(C)nc(Nc2ccc(OC)c(CN[C@H](C)CN3CCCC3)c2)n1` [Compound 48] gave an IC50 of 1 to 10 µM.
For `CNc1cc(C)nc(Nc2ccc(C3CC3)c(CNCCN3CCCC3)c2)n1` [Compound 11, 2-N-[4-cyclopropyl-3-([[2-(pyrrolidin-1-yl)ethyl]amino]methyl)phenyl]-4-N,6-dimethylpyrimidine-2,4-diamine], the IC50 was 1 to 10 µM.
For `CNc1cc(C)nc(Nc2ccc(Cl)c(C(=O)Nc3ccccc3)c2)n1` [Compound 10], the IC50 was > 10 µM.

Same assay, conditions: Homo sapiens, Table 3A, read-out: ICW (IC50 μM)
`CNc1cc(C)nc(Nc2ccc(OC)c(-n3cc4c(n3)CCNC4)c2F)n1` [Compound A19, N2-(2-fluoro-4-methoxy-3-(4,5,6,7-tetrahydro-2H-pyrazolo[4,3-c]pyridin-2-yl)phenyl)-N4,6-dimethylpyrimidine-2,4-diamine] was tested, and the IC50 was 0.1 to 1 µM.
For `CCNCc1cnn(-c2c(OC)ccc(Nc3nc(C)cc(NC)n3)c2F)c1` [Compound A7], the IC50 was 0.1 to 1 µM.
Work on `CNCc1cn(-c2c(OC)cc3c(c2F)N=C(N)C32CCC2)nn1` [Compound A22] yielded an IC50 of 0.1 to 1 µM.
Molecule `CNc1cc(C)nc(Nc2ccc(Cl)c(-n3cc(CN)cn3)c2Cl)n1` [Compound A6] has an IC50 of 0.01 to 0.1 µM.
Molecule `CNCc1cn(-c2c(Cl)ccc(Nc3nc(C)cc(NC)n3)c2Cl)nn1` [Compound A13, N2-(2,4-dichloro-3-(4-((methylamino)methyl)-1H-1,2,3-triazol-1-yl)phenyl)-N4,6-dimethylpyrimidine-2,4-diamine] has an IC50 of 0.01 to 0.1 µM.
